Measured values taken from patent publication US4576948A, “Composition and method for inhibiting terminal deoxyribonucleotidyl transferase activity” (Trustees Boston University, priority 1983, dated 1986).
Each block holds one compound with its values, some of them ahead of it.

What was measured:
[1] = biological target: T1, terminal deoxyribonucleotidyl transferase (TdT) (Bos taurus, UniProt P06526); test: TdT assay (3H-dGMP incorporation) with purified TdT; assay type: biochemical, calf; conditions: for CMP 3H--dGMP inc.: 200 μM compound, 35° C., 1 hour, 10 μM 3H-dGTP, DMSO only control 12,131; for CMP Incorporated, TdT: additive at 400 M (so in the source), DMSO control 12,131; for TdT inhibition (in words): concentration not given
T1 construct: classical preparation may be proteolysed two-subunit form of one gene product
Method: (§1) TdT was purified from normal calf thymus gland by a procedure utilizing the successive steps of homogenization, ion exchange […] and gel filtration. Bollum et al, "The Enzymes", (R. D. Boxer Ed.) pp. 145-171, Academic Press, New York. TdT was assayed at 35° C. for 1 hour in 0.1 ml total volume of a reaction mixture comprising 0.05 M Tris-HCl (pH 8.3), 2 mM […], 0.6 mM MnCl2, 10 μg bovine serum albumin (BSA), 1 μg oligodA14-18, 10 μM ^3 H-dGTP (d-triphosphate) and chelex distilled H2 O. When used, the 6-anilinouracil derivates were added at various concentrations in 5 μl DMSO per 100 μl reaction mix. Other DNA polymerases (α, β, and γ) were assayed using standard assay conditions, as previously described by Wright, Baril and Brown, Nucleic Acids Research, Vol. 8, No. 1, pp. 99-109, 1980.
Reaction conditions used were as noted above.

[2] = biological target: T2, HeLa cell polymerase α (Homo sapiens, UniProt P09884); test: DNA polymerase α assay, standard assay conditions; assay type: biochemical; conditions: for effect on HeLa cell polymerase α (in words): 400 μM; for CMP Incorporated, Pol α: additive at 400 M (so in the source), DMSO control 15,040
Method: as §1

[3] = biological target: T3, HeLa cell polymerase γ (Homo sapiens, UniProt P54098); test: DNA polymerase γ assay, standard assay conditions; assay type: biochemical; conditions: for effect on HeLa cell polymerase γ (in words): 400 μM; for CMP Incorporated, Pol γ: additive at 400 M (so in the source), DMSO control 7,490
T3 sequence (P54098 1-1239): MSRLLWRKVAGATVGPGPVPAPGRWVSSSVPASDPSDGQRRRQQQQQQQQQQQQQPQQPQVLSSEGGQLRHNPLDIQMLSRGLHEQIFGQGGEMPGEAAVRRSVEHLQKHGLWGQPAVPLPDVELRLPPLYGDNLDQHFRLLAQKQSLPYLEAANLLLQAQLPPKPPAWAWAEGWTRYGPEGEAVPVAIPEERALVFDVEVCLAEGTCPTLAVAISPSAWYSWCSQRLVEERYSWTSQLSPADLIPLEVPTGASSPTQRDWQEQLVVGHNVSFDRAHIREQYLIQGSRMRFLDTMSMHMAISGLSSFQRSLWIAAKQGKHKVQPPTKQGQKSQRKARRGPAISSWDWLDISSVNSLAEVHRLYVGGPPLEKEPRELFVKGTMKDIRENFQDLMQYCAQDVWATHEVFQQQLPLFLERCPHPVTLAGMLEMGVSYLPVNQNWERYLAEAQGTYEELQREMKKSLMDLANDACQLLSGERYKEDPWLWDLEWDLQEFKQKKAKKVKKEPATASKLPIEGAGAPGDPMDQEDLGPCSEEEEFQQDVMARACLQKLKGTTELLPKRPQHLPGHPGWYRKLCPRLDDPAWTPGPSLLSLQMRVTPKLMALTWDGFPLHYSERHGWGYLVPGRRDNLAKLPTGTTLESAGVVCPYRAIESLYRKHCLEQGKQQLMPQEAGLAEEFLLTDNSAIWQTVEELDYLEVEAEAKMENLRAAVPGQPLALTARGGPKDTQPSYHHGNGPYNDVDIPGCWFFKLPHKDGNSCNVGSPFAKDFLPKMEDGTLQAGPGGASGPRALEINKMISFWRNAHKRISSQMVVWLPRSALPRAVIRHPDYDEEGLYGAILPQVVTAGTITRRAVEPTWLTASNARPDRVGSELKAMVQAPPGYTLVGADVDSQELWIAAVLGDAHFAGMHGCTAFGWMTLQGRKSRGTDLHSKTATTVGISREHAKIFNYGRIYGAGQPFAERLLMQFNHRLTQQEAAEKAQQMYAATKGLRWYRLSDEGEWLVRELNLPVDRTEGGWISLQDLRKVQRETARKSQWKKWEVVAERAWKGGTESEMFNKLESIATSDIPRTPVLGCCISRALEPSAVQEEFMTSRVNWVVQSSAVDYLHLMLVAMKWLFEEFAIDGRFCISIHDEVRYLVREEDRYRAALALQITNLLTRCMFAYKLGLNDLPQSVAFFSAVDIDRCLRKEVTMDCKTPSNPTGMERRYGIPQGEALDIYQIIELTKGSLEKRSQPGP
T3 sequence (Q9UHN1 2-485 partner): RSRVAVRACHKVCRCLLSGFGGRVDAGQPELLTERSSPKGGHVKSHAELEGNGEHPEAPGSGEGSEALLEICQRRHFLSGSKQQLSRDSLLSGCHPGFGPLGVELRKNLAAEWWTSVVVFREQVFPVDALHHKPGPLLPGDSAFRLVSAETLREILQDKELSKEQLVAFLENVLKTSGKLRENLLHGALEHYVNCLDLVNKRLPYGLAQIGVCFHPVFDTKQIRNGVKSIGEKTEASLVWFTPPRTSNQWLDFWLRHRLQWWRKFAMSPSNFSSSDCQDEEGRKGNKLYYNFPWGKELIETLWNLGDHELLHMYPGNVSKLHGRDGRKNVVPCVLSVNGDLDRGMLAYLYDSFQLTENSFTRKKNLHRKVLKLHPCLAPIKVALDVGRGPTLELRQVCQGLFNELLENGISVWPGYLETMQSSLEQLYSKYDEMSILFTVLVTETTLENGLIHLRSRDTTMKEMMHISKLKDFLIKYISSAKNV
Method: as §1

[4] = biological target: HeLa cell polymerase β (Homo sapiens, UniProt P06746); test: DNA polymerase β assay, standard assay conditions; assay type: biochemical; conditions: for effect on HeLa cell polymerase β (in words): 400 μM; for CMP Incorporated, Pol β: additive at 400 M (so in the source), DMSO control 5,221
Method: as §1

[5] = test system: HeLa cells; test: Inhibition of cell proliferation, HeLa (TdT-negative); assay type: cell-based, Human; conditions: even at 400 μM; 1% DMSO; viable cells at 72 hours
Method: (§2) HeLa cells, El-4cells, L1210 cells were grown in suspended cell culture under standard conditions in RPMI medium, at 37° C. in moist air containing 5% CO2. All inhibitions were performed using a final concentration of 1% DMSO as inhibitor solvent. Control cells were therefore grown in the presence of 1% DMSO.
(§3) Compound GW18C (6-(p-aminoanilo) uracil) was prepared as a 40 mM stock solution in pre-heated DMSO. This stock solution was progressively diluted to give a range of operating inhibitory concentrations between 1×10^-9 M and […]. Inhibition was measured by comparing the number of viable cells in control cultures at the end of 72 hours with the number in cultures exposed to inhibitor.

[6] = test system: L1210 cells; test: Inhibition of cell proliferation, L1210 (TdT-negative); assay type: cell-based, Mouse; conditions: even at 400 μM; 1% DMSO; viable cells at 72 hours
Method: as §2, §3

[7] = test system: EL-4; test: Inhibition of cell proliferation, EL-4 (TdT-positive); assay type: cell-based, Mouse
Method: as §2, §3

[8] = test system: HeLa cells; conditions: background statement, 'in vivo'; cited from earlier work
[9] = biological target: T2, HeLa cell polymerase α; conditions: background statement; no other mammalian cell DNA polymerase inhibited; cited from earlier work

T2 sequence (P09884 whole entry): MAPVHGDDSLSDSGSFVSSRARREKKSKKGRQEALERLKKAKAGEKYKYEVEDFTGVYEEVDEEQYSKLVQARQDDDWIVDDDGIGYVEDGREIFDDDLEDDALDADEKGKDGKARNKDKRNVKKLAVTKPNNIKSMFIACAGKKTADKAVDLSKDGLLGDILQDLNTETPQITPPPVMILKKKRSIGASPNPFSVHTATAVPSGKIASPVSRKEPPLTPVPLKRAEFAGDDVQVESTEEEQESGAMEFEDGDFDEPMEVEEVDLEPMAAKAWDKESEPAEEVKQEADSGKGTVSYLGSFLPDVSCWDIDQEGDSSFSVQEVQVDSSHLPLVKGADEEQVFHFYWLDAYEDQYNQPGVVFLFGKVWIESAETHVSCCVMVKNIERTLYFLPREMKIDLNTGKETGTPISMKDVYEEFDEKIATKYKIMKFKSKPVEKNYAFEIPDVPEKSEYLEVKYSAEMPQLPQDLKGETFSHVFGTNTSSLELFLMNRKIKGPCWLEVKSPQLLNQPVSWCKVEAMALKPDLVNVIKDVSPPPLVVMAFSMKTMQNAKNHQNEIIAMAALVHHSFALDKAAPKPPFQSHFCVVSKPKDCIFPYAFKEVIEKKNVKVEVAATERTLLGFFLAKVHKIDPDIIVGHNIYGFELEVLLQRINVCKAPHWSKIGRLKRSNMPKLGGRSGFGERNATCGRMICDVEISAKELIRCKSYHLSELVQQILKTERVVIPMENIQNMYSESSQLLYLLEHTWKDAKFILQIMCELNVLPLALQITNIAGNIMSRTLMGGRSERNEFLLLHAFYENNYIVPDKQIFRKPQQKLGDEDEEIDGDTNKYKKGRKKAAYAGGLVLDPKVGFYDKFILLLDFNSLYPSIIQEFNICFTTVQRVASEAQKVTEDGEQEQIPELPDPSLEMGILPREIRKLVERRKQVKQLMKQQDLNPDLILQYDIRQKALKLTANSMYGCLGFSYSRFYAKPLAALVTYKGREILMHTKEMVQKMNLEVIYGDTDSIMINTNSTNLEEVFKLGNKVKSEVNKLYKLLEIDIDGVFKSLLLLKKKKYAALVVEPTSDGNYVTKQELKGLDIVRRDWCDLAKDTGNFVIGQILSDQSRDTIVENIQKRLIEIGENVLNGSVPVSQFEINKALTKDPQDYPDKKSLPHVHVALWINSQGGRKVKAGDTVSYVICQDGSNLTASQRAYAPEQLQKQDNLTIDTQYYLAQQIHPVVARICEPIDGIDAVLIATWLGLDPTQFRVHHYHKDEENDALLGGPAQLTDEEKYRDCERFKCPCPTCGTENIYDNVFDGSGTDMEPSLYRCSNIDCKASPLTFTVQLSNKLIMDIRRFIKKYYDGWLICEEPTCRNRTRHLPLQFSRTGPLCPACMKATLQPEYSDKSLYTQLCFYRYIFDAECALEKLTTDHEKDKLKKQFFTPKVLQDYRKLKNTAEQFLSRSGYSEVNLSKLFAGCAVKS
T2 sequence (Q14181 whole entry partner): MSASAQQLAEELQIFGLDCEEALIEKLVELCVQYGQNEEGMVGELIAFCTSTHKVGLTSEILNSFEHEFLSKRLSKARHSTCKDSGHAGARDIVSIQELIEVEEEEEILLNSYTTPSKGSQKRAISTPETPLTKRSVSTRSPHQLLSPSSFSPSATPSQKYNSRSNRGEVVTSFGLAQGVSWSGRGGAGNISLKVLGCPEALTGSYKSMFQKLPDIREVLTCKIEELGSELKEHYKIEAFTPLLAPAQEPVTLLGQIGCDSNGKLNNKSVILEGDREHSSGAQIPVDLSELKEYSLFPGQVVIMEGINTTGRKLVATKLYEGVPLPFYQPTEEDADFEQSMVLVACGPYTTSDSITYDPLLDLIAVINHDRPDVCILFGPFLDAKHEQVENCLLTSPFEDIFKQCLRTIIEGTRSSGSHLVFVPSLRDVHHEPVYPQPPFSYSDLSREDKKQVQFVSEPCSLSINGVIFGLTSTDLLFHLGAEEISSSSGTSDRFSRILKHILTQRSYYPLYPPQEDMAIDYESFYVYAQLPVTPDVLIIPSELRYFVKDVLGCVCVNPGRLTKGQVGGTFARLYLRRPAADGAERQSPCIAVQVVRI
T2 sequence (P49642 whole entry partner): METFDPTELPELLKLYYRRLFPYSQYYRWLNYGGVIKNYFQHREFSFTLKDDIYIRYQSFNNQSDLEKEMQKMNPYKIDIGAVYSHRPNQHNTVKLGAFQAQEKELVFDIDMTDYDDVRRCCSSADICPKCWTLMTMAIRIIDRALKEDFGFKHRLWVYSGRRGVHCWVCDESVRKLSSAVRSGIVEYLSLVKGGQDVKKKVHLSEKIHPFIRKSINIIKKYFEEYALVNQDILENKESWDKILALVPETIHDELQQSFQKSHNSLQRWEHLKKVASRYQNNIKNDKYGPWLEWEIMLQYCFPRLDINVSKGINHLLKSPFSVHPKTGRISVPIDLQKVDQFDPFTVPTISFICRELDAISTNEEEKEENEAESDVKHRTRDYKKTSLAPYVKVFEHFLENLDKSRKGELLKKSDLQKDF
T2 sequence (P49643 whole entry partner): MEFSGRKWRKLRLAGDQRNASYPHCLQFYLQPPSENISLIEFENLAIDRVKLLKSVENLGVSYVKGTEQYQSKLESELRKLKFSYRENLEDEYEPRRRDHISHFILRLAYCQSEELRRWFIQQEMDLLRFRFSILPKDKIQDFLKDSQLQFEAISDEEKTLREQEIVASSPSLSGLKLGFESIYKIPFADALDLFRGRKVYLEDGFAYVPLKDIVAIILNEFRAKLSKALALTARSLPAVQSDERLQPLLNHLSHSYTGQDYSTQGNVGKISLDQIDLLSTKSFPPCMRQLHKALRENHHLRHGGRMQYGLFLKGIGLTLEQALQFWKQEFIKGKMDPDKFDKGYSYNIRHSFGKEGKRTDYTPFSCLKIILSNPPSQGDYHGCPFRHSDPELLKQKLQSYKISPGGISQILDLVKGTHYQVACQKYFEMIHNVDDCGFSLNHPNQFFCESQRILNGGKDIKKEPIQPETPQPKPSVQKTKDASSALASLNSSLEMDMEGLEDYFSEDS
T1 sequence (P06526 whole entry): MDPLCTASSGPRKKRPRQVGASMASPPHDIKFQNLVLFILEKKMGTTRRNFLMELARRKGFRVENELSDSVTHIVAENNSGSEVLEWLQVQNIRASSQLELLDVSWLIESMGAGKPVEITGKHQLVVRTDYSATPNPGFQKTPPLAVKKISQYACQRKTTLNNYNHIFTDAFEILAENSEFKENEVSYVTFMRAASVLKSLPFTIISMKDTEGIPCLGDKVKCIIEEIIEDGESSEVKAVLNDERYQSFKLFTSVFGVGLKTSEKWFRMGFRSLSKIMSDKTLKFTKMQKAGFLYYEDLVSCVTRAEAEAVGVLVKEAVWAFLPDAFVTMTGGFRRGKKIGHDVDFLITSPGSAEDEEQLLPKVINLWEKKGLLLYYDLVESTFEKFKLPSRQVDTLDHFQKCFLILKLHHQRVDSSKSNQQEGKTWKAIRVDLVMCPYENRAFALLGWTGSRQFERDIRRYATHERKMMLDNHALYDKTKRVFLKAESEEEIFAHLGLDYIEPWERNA

Compound: CC(=O)Nc1ccc(CNc2cc(=O)[nH]c(=O)[nH]2)cc1 [GW-16C, 6-(p-acetamidobenzylamino)uracil]
- CMP 3H--dGMP inc. [1]: 14,160 CMP

Compound: COc1ccc(Nc2cc(=O)[nH]c(=O)[nH]2)cc1 [GW-17E, 6-(p-methoxyanilo)uracil]
- CMP 3H--dGMP inc. [1]: 6,980 CMP
- CMP Incorporated, TdT [1]: 4,964 CMP
- effect on HeLa cell polymerase α (in words) [2]: not effected
- CMP Incorporated, Pol α [2]: 15,217 CMP
- effect on HeLa cell polymerase γ (in words) [3]: not effected
- CMP Incorporated, Pol γ [3]: 7,223 CMP
- effect on HeLa cell polymerase β (in words) [4]: not effected
- CMP Incorporated, Pol β [4]: 5,492 cpm

Compound: CCCCc1ccc(Nc2cc(=O)[nH]c(=O)[nH]2)cc1 [GW-11D, 6-(p-butylanilino)uracil]
- CMP 3H--dGMP inc. [1]: 10,925 CMP

Compound: CCCCc1ccc(Nc2cc(=O)[nH]c(=O)[nH]2)cc1 [6-(p-n-butylanilino) uracil]
- inhibition of HeLa cell division and DNA synthesis (in words) [8]: selective inhibitor
- inhibition of DNA polymerase alpha of HeLa cells (in words) [9]: specific inhibitor

Compound: O=c1cc(Nc2ccc3c(c2)CCC3)[nH]c(=O)[nH]1 [GW-17B, 6-(3',4'-trimethyleneanilino)uracil]
- CMP 3H--dGMP inc. [1]: 12,383 CMP

Compound: O=c1cc(Nc2ccccc2)[nH]c(=O)[nH]1 [GW-9E, 6-anilinouracil]
- CMP 3H--dGMP inc. [1]: 10,350 CMP

Compound: O=c1cc(NCCc2ccccc2)[nH]c(=O)[nH]1 [GW-7C, 6-(phenethylamino)uracil]
- CMP 3H--dGMP inc. [1]: 12,391 CMP

Compound: O=c1cc(NCc2ccccc2)[nH]c(=O)[nH]1 [GW-7B, 6-(benzylamino)uracil]
- CMP 3H--dGMP inc. [1]: 12,780 CMP

Compound: O=c1cc(NC2CCCCC2)[nH]c(=O)[nH]1 [GW-18B, 6-(cyclohexylamino)uracil]
- CMP 3H--dGMP inc. [1]: 13,442 CMP

Now from value to compound, other results behind:

- TdT inhibition (in words) [1]: not inhibitory
Compound: Cc1ccc(Nc2cc(=O)[nH]c(=O)[nH]2)cc1CO [GW-28D]

- CMP 3H--dGMP inc. [1]: 21,760 CMP
Compound: O=c1cc(Nc2ccc(O)cc2)[nH]c(=O)[nH]1 [GW-22E, 6-(p-hydroxyanilino)uracil]

- CMP 3H--dGMP inc. [1]: 12,005 CMP
Compound: CC(C)CCNc1cc(=O)[nH]c(=O)[nH]1 [GW-22A, 6-(iso-pentylamino)uracil]

- CMP 3H--dGMP inc. [1]: 11,296 CMP
Compound: O=c1cc(NCC2CCCCC2)[nH]c(=O)[nH]1 [GW-20B, 6-(cyclohexylmethylamino)uracil]

- CMP 3H--dGMP inc. [1]: 11,988 CMP
Compound: 6-(p-methoxybenzyl)-6-aminouracil [GW-33E]

- CMP 3H--dGMP inc. [1]: 5,198 CMP
- CMP Incorporated, TdT [1]: 3,102 CMP
- effect on HeLa cell polymerase α (in words) [2]: not effected
- CMP Incorporated, Pol α [2]: 15,417 CMP
- effect on HeLa cell polymerase γ (in words) [3]: not effected
- CMP Incorporated, Pol γ [3]: 7,165 CMP
- effect on HeLa cell polymerase β (in words) [4]: not effected
- CMP Incorporated, Pol β [4]: 5,218 cpm
Compound: Nc1ccc(Nc2cc(=O)[nH]c(=O)[nH]2)cc1 [GW-18C, 6-(p-aminoanilo)uracil]
- growth of HeLa cells (in words) [5]: not inhibited
- growth of L1210 cells (in words) [6]: not inhibited
- EL-4 proliferation (in words) ([7]; 400 μM, 1% DMSO): inhibited
- inhibition at 400 µM ([7]; Mus musculus, EL4, EL-4, at 72 hours, read-out: maximal growth inhibition): 80%

- CMP 3H--dGMP inc. [1]: 11,674 CMP
Compound: CCCCCNc1cc(=O)[nH]c(=O)[nH]1 [GW-18E, 6-(n-pentylamino)uracil]

- TdT inhibition (in words) [1]: not inhibitory
Compound: O=c1cc(Nc2cccc(O)c2)[nH]c(=O)[nH]1 [GW-23A]

- CMP 3H--dGMP inc. [1]: 12,038 CMP
Compound: O=c1cc(Nc2cccc3ccccc23)[nH]c(=O)[nH]1 [GW-28A, 6-(d-naphthylamino)uracil]
